Values joined by “and” are separate entries in the source; they are usually repeats but may differ in a detail not shown here. Equal values may be shown once.

The source of these data is ChEMBL document CHEMBL4190187, “Discovery of pyrazolopyrimidine derivatives as novel inhibitors of ataxia telangiectasia and rad3 related protein (ATR)” (Bioorg Med Chem Lett, 2017).

Data set [1] concerns the target Serine/threonine-protein kinase ATR (Homo sapiens, UniProt Q13535). As to the kind of experiment: Inhibition of human recombinant FLAG-tagged full length ATR expressed in mammalian cell line co-expressing human recombinant cMyc-tagged full length ATRIP.
Data set [2] in a line: Metabolic stability in mouse liver microsomes assessed as compound remaining at 1 uM in presence of NADPH as cofactor measured after 30 mins by LC-MS/MS method. As to conditions: read-out: Stability. The data set is classed as ADME, microsome.
Data set [3] in a line: Metabolic stability in human liver microsomes assessed as compound remaining at 1 uM in presence of NADPH as cofactor measured after 30 mins by LC-MS/MS method. The data set is classed as ADME, microsome. The note with it: read-out: Stability.
A short description of data set [4]: Metabolic stability in rat liver microsomes assessed as compound remaining at 1 uM in presence of NADPH as cofactor measured after 30 mins by LC-MS/MS method. The data set is classed as ADME, microsome. The note with it: read-out: Stability.
In data set [5] the target is T1, Tyrosine-protein kinase BTK (Homo sapiens, UniProt Q06187). As to the kind of experiment: Inhibition of BTK (unknown origin) at 100 nM.
T1 sequence (Q06187 whole entry, canonical isoform): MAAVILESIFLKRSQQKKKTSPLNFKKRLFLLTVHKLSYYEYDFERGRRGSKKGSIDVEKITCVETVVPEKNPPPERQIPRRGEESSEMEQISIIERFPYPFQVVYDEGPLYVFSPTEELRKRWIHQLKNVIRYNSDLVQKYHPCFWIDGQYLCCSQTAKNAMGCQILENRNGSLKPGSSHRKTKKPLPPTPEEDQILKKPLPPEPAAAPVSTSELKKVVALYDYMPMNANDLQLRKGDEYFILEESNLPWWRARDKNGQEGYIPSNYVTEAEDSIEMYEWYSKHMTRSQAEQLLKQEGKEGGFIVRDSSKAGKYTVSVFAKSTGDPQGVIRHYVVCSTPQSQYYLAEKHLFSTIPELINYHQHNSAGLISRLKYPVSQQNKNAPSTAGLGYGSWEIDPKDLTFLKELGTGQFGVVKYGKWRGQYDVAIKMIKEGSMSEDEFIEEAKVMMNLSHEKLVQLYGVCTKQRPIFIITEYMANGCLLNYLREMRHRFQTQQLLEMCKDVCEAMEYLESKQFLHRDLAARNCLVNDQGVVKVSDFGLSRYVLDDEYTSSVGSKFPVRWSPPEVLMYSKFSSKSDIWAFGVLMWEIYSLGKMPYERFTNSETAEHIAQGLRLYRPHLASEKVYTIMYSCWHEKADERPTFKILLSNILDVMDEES
Data set [6] addresses Phosphatidylinositol 4,5-bisphosphate 3-kinase catalytic subunit delta isoform (Homo sapiens) (UniProt O00329). As to the kind of experiment: Inhibition of PI3Kdelta (unknown origin) at 100 nM.
For data set [7], the target named is Phosphatidylinositol 4,5-bisphosphate 3-kinase catalytic subunit delta isoform (Homo sapiens, UniProt O00329). Put plainly: Inhibition of PI3Kdelta (unknown origin).
Sequence of Phosphatidylinositol 4,5-bisphosphate 3-kinase catalytic subunit delta isoform (O00329 whole entry, canonical isoform): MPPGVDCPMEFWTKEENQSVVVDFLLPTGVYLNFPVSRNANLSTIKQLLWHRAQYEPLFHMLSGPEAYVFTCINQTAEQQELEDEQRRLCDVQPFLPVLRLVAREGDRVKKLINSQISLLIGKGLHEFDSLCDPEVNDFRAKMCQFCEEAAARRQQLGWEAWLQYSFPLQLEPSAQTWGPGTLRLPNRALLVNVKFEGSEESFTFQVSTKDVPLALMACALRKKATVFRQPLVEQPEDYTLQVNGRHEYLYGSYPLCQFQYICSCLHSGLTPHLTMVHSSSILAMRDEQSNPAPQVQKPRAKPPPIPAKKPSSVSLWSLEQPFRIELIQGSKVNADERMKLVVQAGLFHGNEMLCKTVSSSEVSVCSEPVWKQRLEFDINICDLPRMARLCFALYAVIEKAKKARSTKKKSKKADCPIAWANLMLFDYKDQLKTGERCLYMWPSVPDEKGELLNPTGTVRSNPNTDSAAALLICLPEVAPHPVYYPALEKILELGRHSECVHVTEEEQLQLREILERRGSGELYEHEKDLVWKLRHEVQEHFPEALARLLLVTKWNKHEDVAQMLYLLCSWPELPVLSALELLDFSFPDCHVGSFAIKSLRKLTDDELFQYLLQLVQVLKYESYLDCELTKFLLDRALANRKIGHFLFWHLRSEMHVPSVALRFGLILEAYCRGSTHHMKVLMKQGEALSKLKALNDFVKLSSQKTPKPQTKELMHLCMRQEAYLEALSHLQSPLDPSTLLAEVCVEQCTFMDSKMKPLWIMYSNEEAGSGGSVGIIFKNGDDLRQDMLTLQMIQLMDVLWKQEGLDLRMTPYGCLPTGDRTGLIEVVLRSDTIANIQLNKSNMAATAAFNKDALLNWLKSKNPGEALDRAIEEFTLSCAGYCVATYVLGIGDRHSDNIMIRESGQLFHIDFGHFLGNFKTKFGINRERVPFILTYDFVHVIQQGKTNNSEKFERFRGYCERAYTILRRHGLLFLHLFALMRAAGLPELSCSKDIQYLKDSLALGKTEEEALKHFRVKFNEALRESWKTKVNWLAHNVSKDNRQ
Data set [8] concerns the target T1, Tyrosine-protein kinase BTK. As to the kind of experiment: Inhibition of BTK (unknown origin).

Sequence of Serine/threonine-protein kinase ATR (Q13535 whole entry): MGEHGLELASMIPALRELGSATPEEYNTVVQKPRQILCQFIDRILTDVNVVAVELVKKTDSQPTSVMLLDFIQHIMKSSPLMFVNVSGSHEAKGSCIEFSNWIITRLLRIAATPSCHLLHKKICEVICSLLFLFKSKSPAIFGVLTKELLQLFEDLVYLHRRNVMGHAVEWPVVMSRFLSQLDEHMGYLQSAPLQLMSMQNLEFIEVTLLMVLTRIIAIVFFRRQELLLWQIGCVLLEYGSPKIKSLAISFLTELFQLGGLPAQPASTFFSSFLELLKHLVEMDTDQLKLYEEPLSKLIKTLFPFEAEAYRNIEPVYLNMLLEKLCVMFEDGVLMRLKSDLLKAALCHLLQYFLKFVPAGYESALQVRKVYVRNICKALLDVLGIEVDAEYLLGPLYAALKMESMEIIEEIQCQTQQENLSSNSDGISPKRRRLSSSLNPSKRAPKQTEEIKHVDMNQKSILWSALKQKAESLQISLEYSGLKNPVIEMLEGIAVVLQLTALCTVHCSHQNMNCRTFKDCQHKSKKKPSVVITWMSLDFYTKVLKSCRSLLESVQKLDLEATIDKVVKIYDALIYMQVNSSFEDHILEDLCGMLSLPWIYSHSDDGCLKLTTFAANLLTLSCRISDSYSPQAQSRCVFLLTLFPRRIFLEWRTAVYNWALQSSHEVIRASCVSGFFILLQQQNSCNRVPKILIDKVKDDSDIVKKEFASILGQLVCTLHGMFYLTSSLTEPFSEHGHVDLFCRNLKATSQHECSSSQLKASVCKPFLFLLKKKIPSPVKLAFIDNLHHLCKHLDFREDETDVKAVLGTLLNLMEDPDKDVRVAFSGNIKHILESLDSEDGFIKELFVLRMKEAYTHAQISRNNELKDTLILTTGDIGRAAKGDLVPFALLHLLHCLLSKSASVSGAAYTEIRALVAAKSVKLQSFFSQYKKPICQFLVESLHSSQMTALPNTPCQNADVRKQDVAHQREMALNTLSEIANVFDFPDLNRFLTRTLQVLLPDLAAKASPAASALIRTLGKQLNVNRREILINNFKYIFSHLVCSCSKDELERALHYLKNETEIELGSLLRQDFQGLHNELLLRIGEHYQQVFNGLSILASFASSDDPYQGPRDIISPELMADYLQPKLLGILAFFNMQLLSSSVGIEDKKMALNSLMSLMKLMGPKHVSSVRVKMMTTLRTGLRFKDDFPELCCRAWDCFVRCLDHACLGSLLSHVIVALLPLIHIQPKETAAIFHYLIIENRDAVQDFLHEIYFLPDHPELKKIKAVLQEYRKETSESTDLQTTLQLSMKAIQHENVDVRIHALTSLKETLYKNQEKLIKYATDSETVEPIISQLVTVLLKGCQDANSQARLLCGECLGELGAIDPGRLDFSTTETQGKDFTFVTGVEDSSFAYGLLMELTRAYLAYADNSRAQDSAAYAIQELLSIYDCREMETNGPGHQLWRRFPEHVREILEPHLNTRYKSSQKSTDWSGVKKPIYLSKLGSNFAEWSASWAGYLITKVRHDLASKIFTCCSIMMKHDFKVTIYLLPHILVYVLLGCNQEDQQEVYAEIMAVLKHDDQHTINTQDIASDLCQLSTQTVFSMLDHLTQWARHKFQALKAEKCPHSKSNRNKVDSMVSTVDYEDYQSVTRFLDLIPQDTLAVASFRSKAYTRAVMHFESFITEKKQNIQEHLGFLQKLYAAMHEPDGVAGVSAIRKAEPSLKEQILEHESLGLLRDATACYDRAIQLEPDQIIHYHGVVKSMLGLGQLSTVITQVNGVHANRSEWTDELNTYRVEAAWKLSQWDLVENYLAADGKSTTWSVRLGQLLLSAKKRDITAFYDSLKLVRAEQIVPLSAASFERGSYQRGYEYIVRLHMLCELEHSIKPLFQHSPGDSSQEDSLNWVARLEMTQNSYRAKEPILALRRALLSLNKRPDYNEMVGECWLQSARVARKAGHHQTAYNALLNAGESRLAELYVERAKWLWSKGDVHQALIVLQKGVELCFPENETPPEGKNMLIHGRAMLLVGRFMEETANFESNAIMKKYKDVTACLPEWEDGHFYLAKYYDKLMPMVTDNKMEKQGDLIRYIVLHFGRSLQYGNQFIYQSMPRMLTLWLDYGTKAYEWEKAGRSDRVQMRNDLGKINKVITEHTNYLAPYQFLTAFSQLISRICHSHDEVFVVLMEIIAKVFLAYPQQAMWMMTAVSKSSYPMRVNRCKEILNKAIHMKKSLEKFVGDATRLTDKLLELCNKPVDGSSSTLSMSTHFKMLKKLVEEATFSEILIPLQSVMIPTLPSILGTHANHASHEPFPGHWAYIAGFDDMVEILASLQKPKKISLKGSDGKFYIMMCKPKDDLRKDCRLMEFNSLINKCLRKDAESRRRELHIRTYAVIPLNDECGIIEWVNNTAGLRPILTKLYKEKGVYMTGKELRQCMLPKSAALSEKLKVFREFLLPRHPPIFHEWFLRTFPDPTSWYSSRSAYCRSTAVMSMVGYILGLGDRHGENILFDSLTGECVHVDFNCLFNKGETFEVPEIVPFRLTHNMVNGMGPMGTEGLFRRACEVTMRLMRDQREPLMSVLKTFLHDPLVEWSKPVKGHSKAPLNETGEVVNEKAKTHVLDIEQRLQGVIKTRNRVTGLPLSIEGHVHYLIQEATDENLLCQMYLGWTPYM
Sequence of Phosphatidylinositol 4,5-bisphosphate 3-kinase catalytic subunit delta isoform (Homo sapiens) (O00329 whole entry, canonical isoform): as the sequence (O00329 whole entry, canonical isoform) above

Turning to `c1ccc2c(c1)CCC(n1nc(-c3cnc4[nH]ccc4c3)c3cncnc31)C2` (racemic), the half-maximal inhibitory concentration (IC50) in data set [1] was above 30000 nM.
On to `Nc1ncnc2c1c(-c1ccc(Br)c(O)c1)nn2C1CCc2ccccc21` (configuration not stated), for which the IC50 in data set [1] amounted to 1860 nM.
With `Nc1ncnc2c1c(-c1cnc3[nH]ccc3c1)nn2C1CCc2ccccc2C1` (stereo in doubt; 1), in data set [1], the IC50 stood at 304 nM.
Regarding `Nc1ncnc2c1c(-c1cnc3[nH]ccc3c1)nn2C1Cc2ccccc2C1`, in data set [1], the half-maximal inhibitory concentration (IC50) is 654 nM.
On the same count and under the same terms, the value for `Nc1ncnc2c1c(-c1ccc3[nH]ccc3c1)nn2C1CCc2ccccc2C1` (racemic) was 1590 nM; that for `Nc1nc2c(s1)CC(n1nc(-c3cnc4[nH]ccc4c3)c3c(N)ncnc31)CC2` (configuration not stated) was 547 nM and 269 nM.
In the case of `Nc1ncnc2c1c(-c1ccc(N3CCCC3)nc1)nn2C1CCc2ccccc2C1` (racemic), the IC50 in data set [1] was determined as 19100 nM.
For the compound `Nc1ccc(-c2nn(C3CCc4ccccc4C3)c3ncnc(N)c23)cn1` (racemic), the IC50 in data set [1] was determined as 19300 nM.
The same measure, in the same setting: the value for `CS(=O)(=O)N1CCC(n2nc(-c3cnc4[nH]ccc4c3)c3c(N)ncnc32)CC1` was 1320 nM; that for `Nc1ncnc2c1c(-c1cnc3[nH]ccc3c1)nn2C1CCc2ccccc2C1` (stereo in doubt; 1') was 158 nM.
Take `Nc1ncnc2c1c(-c1cccnc1)nn2C1CCc2ccccc2C1` (racemic): the half-inhibitory concentration (IC50) in data set [1] was above 30000 nM.
As for `Nc1ncnc2c1c(-c1cnc3[nH]ccc3c1)nn2C1CCc2ccccc2C1` (racemic) [listing 1 of 2 here], in data set [1], the concentration for half-maximal inhibition (IC50) was 212 nM.
On to `Nc1ncnc2c1c(-c1ccc(Br)c(O)c1)nn2C1Cc2ccccc2C1`, for which, in data set [1], the concentration for half-maximal inhibition (IC50) was 3560 nM.
Same read-out and setting: the value for `Nc1ncnc2c1c(-c1cnc3[nH]c(=O)ccc3c1)nn2C1CCc2ccccc2C1` (racemic) was 22400 nM; that for `Nc1ncnc2c1c(-c1cnc3[nH]ccc3c1)nn2C1CCCC1` was 1420 nM.
With `CNCc1ccc(-c2cc(-c3nc(-c4ccc(S(=O)(=O)C(C)C)cc4)cnc3N)on2)cc1` [BERZOSERTIB], the remaining at 0.5 h, 1 µM in data set [2] turned out to be 77%; in data set [3] it was 71%; in data set [4] it was 80%.
On to `Nc1ncnc2c1c(-c1c[nH]c3ncccc13)nn2C1CCc2ccccc2C1` (racemic), for which, in data set [1], the IC50 was above 30000 nM.
Take `Nc1ncnc2c1c(-c1cnc3[nH]ccc3c1)nn2C1CCc2ccccc2C1` (racemic) [listing 2 of 2 here]: the inhibition turned out to be 24% in data set [5] and 52% in data set [6].
Turning to `Nc1ccnc2c1c(-c1cnc3[nH]ccc3c1)nn2C1CCc2ccccc2C1` (racemic), the 50% inhibitory concentration (IC50) in data set [1] was above 30000 nM.
For the compound `Nc1nc2c(s1)CC(n1nc(-c3cc(F)c4[nH]ccc4c3)c3c(N)ncnc31)CC2` (configuration not stated), the IC50 in data set [7] was found to be 307 nM; in data set [8], 22 nM; in data set [1], 2630 nM.
With `Cn1ccc2cc(-c3nn(C4CCc5ccccc5C4)c4ncnc(N)c34)cnc21` (racemic), the concentration for half-maximal inhibition (IC50) in data set [1] is 580 nM.
On the same count and under the same terms, the value for `Nc1ncnc2c1c(-c1cnc3cc[nH]c3c1)nn2C1CCc2ccccc2C1` (racemic) was 4620 nM.
